A short description of experiment [1]: Tested in vitro for killing of Mycobacterium tuberculosis Erdman (ATCC 35801) in monolayers of mouse bone marrow macrophages and 90% reduction was reported using level 3 assay. Further details: unit not given here. It counts as functional.
Experiment [2] concerns Mycolicibacterium fortuitum. Nature of the experiment: In vitro anti-mycobacterial activity expressed as minimum inhibitory concentration against Mycobacterium fortuitum ATCC 6841. It counts as functional.
For a further experiment, the species on record is Mus musculus. Nature of the experiment: Tested in vitro for killing of Mycobacterium tuberculosis Erdman (ATCC 35801) in monolayers of mouse bone marrow macrophages and 99% reduction was reported using level 3 assay. It counts as functional. The arrangement: unit not given here.
The subject of experiment [3] is Mycobacterium tuberculosis. Put plainly: Percent reduction of mycobacterial growth using Mycobacterium tuberculosis H37Rv at a concentration of 12.5 ug/mL. Format: functional.
The test system of experiment [4] is Mycobacterium tuberculosis. Nature of the experiment: In vitro antituberculosis activity against Mycobacterium tuberculosis H37Rv using the BACTEC 12B medium using a micro dilution assay( MABA). Format: functional.
Experiment [5] in a line: Ratio between EC90 and MIC was reported. Format: functional.
In experiment [6] the test system is Mycobacterium tuberculosis. Nature of the experiment: Compound was evaluated for antituberculosis activity against Mycobacterium tuberculosis in level 2 assay. It counts as functional.
The subject of experiment [7] is Mycobacterium tuberculosis. Nature of the experiment: Compound was evaluated for antituberculosis activity against Mycobacterium tuberculosis in level 2 assay (performed using BACTEC in which MIC of RMP was found as 0.125 […]). It counts as functional.
Experiment [8] deals with Mycobacterium tuberculosis. Put plainly: Concentration required for inhibition of growth of Mycobacterium tuberculosis in level 2 assay. It counts as functional, organism-based.
The nature of experiment [9]: Selectivity index (IC50/MIC) was determined. It counts as functional.

Converted amounts (≈) assume the structure as drawn. A value given as a limit tells only on which side of the number the result lay.

With `CO[C@H]1/C=C/O[C@@]2(C)Oc3c(C)c(O)c4c(O)c(c(/C=N/N5CCN(C)CC5)c(O)c4c3C2=O)NC(=O)/C(C)=C\C=C\[C@H](C)[C@H](O)[C@@H](C)[C@@H](O)[C@@H](C)[C@H](OC(C)=O)[C@@H]1C` [RIFAMPIN], the EC90 in experiment [1] stood at 0.007. The compound further gave an MIC in [2] of 0.25 µg/mL (≈ 0.304 µM). The compound further came in with an EC99 in the experiment listed under Mus musculus of 0.451.

Turning to `C=CCNC(=S)Nc1ccc(-c2nnc(SCc3ccc(Cl)cc3Cl)n2-c2ccccc2)cc1`, the minimal inhibitory concentration (MIC) was above 128 µg/mL in [2] and above 12.5 µg/mL in experiment [4]. The compound also yielded an inhibition at 12.5 µg/mL in experiment [3] of 63%.

With `S=C(Nc1ccc(Cl)cc1)Nc1ccc(-c2n[nH]c(=S)n2-c2ccccc2)cc1`, the MIC is 64 µg/mL (≈ 146 µM) in experiment [2] and above 12.5 µg/mL in experiment [4]. Further, testing at 12.5 µg/mL in experiment [3] gave an inhibition of 11%.

Regarding `S=C(Nc1ccccc1)Nc1ccc(-c2n[nH]c(=S)n2-c2ccccc2)cc1`, the results for the MIC in experiment [2] and in experiment [4] were above 128 µg/mL and above 12.5 µg/mL, respectively. This compound had an inhibition at 12.5 µg/mL in experiment [3] of 13%.

Compound `NC[C@H]1O[C@H](O[C@H]2[C@H](O)[C@@H](O[C@H]3O[C@H](CO)[C@@H](O)[C@H](N)[C@H]3O)[C@H](N)C[C@@H]2N)[C@H](N)C[C@@H]1O` [TOBRAMYCIN] showed an MIC in [2] of 32 µg/mL (≈ 68.4 µM).

Take `C=CC/N=C(\S)Nc1ccc(-c2nnc(S)n2C2CCCCC2)cc1`: the figures for the MIC in [2] and in experiment [4] were 32 µg/mL (≈ 85.7 µM) and above 12.5 µg/mL, respectively. Further, the inhibition at 12.5 µg/mL in experiment [3] worked out at 35%.

Consider `C=CCNC(=S)Nc1ccc(-c2n[nH]c(=S)n2C)cc1`, for which, in [5], the Ratio was below 0.0558. The same compound returned an EC90 in experiment [1] of 0.698. Further, the MIC in experiment [6] was above 12.5 µg/mL; in [2], 64 µg/mL (≈ 210 µM); in experiment [4], 12.5 µg/mL (≈ 40.9 µM). For the same compound, in experiment [3], the inhibition at 12.5 µg/mL worked out at 94%. In the experiment listed under Mus musculus, this compound registered an EC99 above 100.

Take `CNC(=S)Nc1ccc(-c2n[nH]c(=S)n2C)cc1`: the EC90/MIC in [5] was below 0.0297. In addition, in experiment [1], the EC90 is given as 0.371. In addition, the MIC is above 12.5 µg/mL in experiment [6], 64 µg/mL (≈ 229 µM) in experiment [2] and below 12.5 µg/mL in [4]. Also, in experiment [3], the inhibition at 12.5 µg/mL came out at 93%. Moreover, in the experiment filed under Mus musculus, the EC99 is on record as above 100.

`CCNC(=S)Nc1ccc(-c2n[nH]c(=S)n2-c2ccccc2)cc1`: the MIC is 64 µg/mL (≈ 180 µM) in [2] and above 12.5 µg/mL in experiment [4]. In experiment [3], the inhibition at 12.5 µg/mL came out at 17%.

Take `C=CCn1c(-c2ccc(NC(=S)Nc3ccccc3)cc2)n[nH]c1=S`: the figures for the MIC in experiment [2] and in experiment [4] were 32 µg/mL (≈ 87.1 µM) and above 12.5 µg/mL, respectively. Also, in [3], the inhibition at 12.5 µg/mL is 0%.

Consider `S/C(=N\C1CCCCC1)Nc1ccc(-c2nnc(S)n2C2CCCCC2)cc1`, for which the results for the MIC in experiment [2] and in experiment [4] were above 128 µg/mL and above 12.5 µg/mL, respectively. This compound gave an inhibition at 12.5 µg/mL in experiment [3] of 12%.

As for `CNC(=S)Nc1ccc(-c2n[nH]c(=S)n2-c2ccccc2)cc1`, the MIC was 64 µg/mL (≈ 187 µM) in experiment [2] and above 12.5 µg/mL in experiment [4]. Besides, the inhibition at 12.5 µg/mL in [3] worked out at 27%.

Regarding `S/C(=N\C1CCCCC1)Nc1ccc(-c2nnc(S)n2-c2ccccc2)cc1`, the MIC was 64 µg/mL (≈ 156 µM) in [2] and above 12.5 µg/mL in [4]. In experiment [3], this compound registered an inhibition at 12.5 µg/mL of 13%.

With `C=CCn1c(-c2ccc(NC(=S)NC)cc2)n[nH]c1=S`, the results for the MIC in experiment [2] and in experiment [4] were above 128 µg/mL and above 12.5 µg/mL, respectively. The inhibition at 12.5 µg/mL in experiment [3] amounted to 0%.

Take `CNC(=S)Nc1ccc(-c2nnc(SCc3ccccc3)n2C)cc1`: the MIC in experiment [2] was above 128 µg/mL; in experiment [4], above 12.5 µg/mL. Further, testing at 12.5 µg/mL in [3] gave an inhibition of 85%.

Regarding `C=CCNC(=S)Nc1ccc(-c2n[nH]c(=S)n2CCc2ccccc2)cc1`, the MIC in experiment [2] is 64 µg/mL (≈ 162 µM); in [4], above 12.5 µg/mL. Also, testing at 12.5 µg/mL in experiment [3] gave an inhibition of 6%.

As to `CCn1c(S)nnc1-c1ccc(N/C(S)=N/C2CCCCC2)cc1`, the MIC is 64 µg/mL (≈ 177 µM) in experiment [2] and above 12.5 µg/mL in experiment [4]. In [3], at 12.5 µg/mL the inhibition was 10%.

Consider `Cn1c(-c2ccc(NC(=S)Nc3ccccc3)cc2)n[nH]c1=S`, for which the MIC is 64 µg/mL (≈ 187 µM) in experiment [2] and above 12.5 µg/mL in experiment [4]. The inhibition at 12.5 µg/mL in [3] came out at 29%.

Take `C=CCNC(=S)Nc1ccc(-c2n[nH]c(=S)n2-c2ccccc2)cc1`: the values for the MIC in experiment [2] and in [4] were 64 µg/mL (≈ 174 µM) and above 12.5 µg/mL, respectively. The inhibition at 12.5 µg/mL in experiment [3] worked out at 12%.

For `C=CCNC(=S)Nc1ccc(-c2nnc(SCc3ccc(Cl)cc3Cl)n2C)cc1`, the minimum inhibitory concentration (MIC) in [7] was 6.25 µg/mL; in experiment [2], above 128 µg/mL; in experiment [4], below 12.5 µg/mL. The compound also displayed a 50% inhibitory concentration (IC50) in experiment [8] above 10 µg/mL. Moreover, in [9], the Ratio was above 1.6. For the same compound, the inhibition at 12.5 µg/mL in experiment [3] amounted to 94%.

Take `Cn1c(S)nnc1-c1ccc(N/C(S)=N/C2CCCCC2)cc1`: the values for the MIC in experiment [2] and in experiment [4] were 32 µg/mL (≈ 92.1 µM) and above 12.5 µg/mL, respectively. The compound further returned an inhibition at 12.5 µg/mL in experiment [3] of 10%.

As for `C=CCNC(=S)Nc1ccc(-c2n[nH]c(=S)n2CC=C)cc1`, the values for the MIC in experiment [2] and in [4] were 32 µg/mL (≈ 96.5 µM) and above 12.5 µg/mL, respectively. The inhibition at 12.5 µg/mL in [3] worked out at 71%.

For the compound `CCNC(=S)Nc1ccc(-c2n[nH]c(=S)n2C)cc1`, the Ratio in experiment [5] was below 0.0242. The compound also had an EC90 in experiment [1] of 0.303. Moreover, the MIC in experiment [6] is above 12.5 µg/mL; in experiment [2], 64 µg/mL (≈ 218 µM); in experiment [4], below 12.5 µg/mL. The inhibition at 12.5 µg/mL in experiment [3] amounted to 90%. In the experiment filed under Mus musculus, this compound had an EC99 of 48.65.

Take `C=CCNC(=S)Nc1ccc(-c2n[nH]c(=S)n2CC)cc1`: the MIC in experiment [2] is 64 µg/mL (≈ 200 µM); in [4], above 12.5 µg/mL. The same compound registered an inhibition at 12.5 µg/mL in experiment [3] of 89%.

(Values after ChEMBL document CHEMBL1134120, “Some 3-thioxo/alkylthio-1,2,4-triazoles with a substituted thiourea moiety as possible antimycobacterials” (Bioorg Med Chem Lett, 2001).)
